The values below come from patent US20070117770A1, “Human ribosomal DNA (rDNA) and ribosomal RNA (rRNA) nucleic acids and uses thereof” (Cylene Pharmaceuticals, Inc., priority 2005, published 2007).

Test in all cases: Protein kinase inhibition assay
What all share (format): biochemical

One assay deals with Arg(h) (Homo sapiens, UniProt P42684). To be noted: read-out: percent residual activity of Arg(h). As to the method: (§1) Certain compounds were tested for activity in protein kinase inhibition assays. All substrates were dissolved and diluted to working stocks in de-ionized water, apart from histone H1 (10× working stock in 20 mM MOPS pH 7.0), PDKtide (10× working stock in 50 mM Tris pH 7.0) ATF2 (which is typically stored at a 20× working stock in 50 mM Tris pH 7.5, 150 mM NaCl, 0.1 mM EGTA, 0.03% Brij-35, 50% glycerol, 1 mM benzamidine, 0.2 mM PMSF and 0.1% R-mercaptoethanol), KKLNRTLSFAEPG (SEQ ID NO:203) and RRRLSFAEPG (SEQ ID NO:204) (50 mM HEPES pH 7.4) and GGEEEEYFELVKKKK (SEQ ID NO:205) (20 mM MOPS pH 7.0). All kinases were pre-diluted to a 10× working concentration prior to addition into the assay. The composition of the dilution buffer for each kinase is detailed below.
Sequence of Arg(h) (P42684 whole entry): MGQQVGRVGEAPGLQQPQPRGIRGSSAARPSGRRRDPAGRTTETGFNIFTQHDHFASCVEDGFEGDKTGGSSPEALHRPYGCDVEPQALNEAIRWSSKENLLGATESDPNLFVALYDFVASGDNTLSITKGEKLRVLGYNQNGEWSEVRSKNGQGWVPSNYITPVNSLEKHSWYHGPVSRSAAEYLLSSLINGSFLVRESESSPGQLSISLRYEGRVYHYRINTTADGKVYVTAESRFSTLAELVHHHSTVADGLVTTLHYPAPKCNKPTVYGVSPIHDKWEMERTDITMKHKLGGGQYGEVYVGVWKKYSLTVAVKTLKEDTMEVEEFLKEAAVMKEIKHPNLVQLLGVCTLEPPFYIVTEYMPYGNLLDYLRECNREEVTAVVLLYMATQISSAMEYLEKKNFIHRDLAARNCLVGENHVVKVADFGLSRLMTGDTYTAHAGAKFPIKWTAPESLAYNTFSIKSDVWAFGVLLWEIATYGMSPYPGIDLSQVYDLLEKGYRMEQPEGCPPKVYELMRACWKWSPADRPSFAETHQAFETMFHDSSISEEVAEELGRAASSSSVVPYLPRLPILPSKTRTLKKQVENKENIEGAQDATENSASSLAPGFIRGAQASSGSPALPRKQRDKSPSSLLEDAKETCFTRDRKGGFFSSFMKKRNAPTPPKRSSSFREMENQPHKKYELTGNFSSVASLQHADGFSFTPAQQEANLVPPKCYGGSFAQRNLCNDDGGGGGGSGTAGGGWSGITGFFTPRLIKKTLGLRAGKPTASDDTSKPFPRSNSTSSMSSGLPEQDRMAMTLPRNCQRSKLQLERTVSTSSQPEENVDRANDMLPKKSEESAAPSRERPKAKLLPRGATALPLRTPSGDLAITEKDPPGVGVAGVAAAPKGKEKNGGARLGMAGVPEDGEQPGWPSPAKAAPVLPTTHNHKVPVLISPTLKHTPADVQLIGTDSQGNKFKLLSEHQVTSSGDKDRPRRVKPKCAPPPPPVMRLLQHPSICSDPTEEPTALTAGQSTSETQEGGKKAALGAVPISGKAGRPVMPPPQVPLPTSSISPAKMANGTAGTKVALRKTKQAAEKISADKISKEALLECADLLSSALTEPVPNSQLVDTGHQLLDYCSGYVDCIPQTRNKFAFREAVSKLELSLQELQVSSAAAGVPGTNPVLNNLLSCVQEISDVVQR
(§2) In a final reaction volume of 25 μl, Arg (h) (5-10 mU) is incubated with 8 mM MOPS pH 7.0, 0.2 mM EDTA, 50 μM EAIYAAPFAKKK (SEQ ID NO:206), 10 mM MgAcetate and [gamma-33P-ATP] (specific activity approx. 500 cpm/pmol, concentration as required). The reaction is initiated by the addition of the MgATP mix. After incubation for 40 minutes at room temperature, the reaction is stopped by the addition of 5 μl of a 3% phosphoric acid solution. 10 pi of the reaction is then spotted onto a P30 filtermat and washed three times for 5 minutes in 75 mM phosphoric acid and once in methanol prior to drying and scintillation counting.

Another assay has as its target CDK2/cyclinA(h) (Homo sapiens, UniProt P24941). Particulars: read-out: percent residual activity of CDK2/cyclinA(h). As to the method: as §1
as §2, with “CDK2/cyclinA” for “Arg”, “0.1 mg/ml histone H1,” for “50 μM EAIYAAPFAKKK (SEQ ID NO:206),”, “μl” for “pi”

The next assay deals with cSRC(h) (Homo sapiens, UniProt P12931). To be noted: read-out: percent residual activity of cSRC(h). As to the method: as §1
Sequence of cSRC(h) (P12931 whole entry): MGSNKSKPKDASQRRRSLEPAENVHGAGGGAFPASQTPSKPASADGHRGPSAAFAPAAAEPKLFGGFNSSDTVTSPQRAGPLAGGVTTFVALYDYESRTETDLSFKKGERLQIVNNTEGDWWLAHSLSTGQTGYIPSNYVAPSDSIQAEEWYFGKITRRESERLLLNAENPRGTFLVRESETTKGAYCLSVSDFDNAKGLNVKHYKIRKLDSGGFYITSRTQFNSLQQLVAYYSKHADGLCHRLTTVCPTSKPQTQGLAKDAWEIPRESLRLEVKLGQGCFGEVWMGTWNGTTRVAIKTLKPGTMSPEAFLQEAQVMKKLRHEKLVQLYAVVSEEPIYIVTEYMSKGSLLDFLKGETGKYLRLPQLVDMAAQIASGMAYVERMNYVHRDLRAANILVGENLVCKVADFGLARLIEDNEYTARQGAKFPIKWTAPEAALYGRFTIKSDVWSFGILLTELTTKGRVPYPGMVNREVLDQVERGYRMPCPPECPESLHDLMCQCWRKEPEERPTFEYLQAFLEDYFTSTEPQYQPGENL
In a final reaction volume of 25 μl, cSRC (h) (5-10 mU) is incubated with 8 mM MOPS pH 7.0, 0.2 mM EDTA, 250 μM KVEKIGEGTYGVVYK (SEQ ID NO:211) (Cdc2 peptide), 10 mM MgAcetate and [y-33P-ATP] (specific activity approx. 500 cpm/pmol, concentration as required). The reaction is initiated by the addition of the MgATP mix. After incubation for 40 minutes at room temperature, the reaction is stopped by the addition of 5 μl of a 3% phosphoric acid solution. […]

For a further assay, the target named is PAK2(h) (Homo sapiens, UniProt Q13177). To be noted: read-out: percent residual activity of PAK2(h). As to the method:
as §1
as §2, with “μl, PAK2” for “μl, Arg”, “EDTA, 30” for “EDTA, 50”, “μM […]” for “μM EAIYAAPFAKKK”, “ID NO:222),” for “ID NO:206),”, “10 μl” for “10 pi”

The next assay addresses PKCδ(h) (Homo sapiens, UniProt Q05655). Particulars: read-out: percent residual activity of PKCδ(h). As to the method:
as §1
In a final reaction volume of 25 μl, PKCδ (h) (5-10 mU) is incubated with 20 mM HEPES pH 7.4, 0.03% Triton X-100, 0.1 mg/ml phosphatidylserine, 10 μg/ml diacylglycerol, 50 μM ERMRPRKRQGSVRRRV (SEQ ID NO:224), 10 mM MgAcetate and [gamma-33P-ATP] (specific activity approx. 500 cpm/pmol, concentration as required). The reaction is initiated by the addition of the MgATP mix. After incubation for 40 minutes at room temperature, the reaction is stopped by the addition of 5 μl of a 3% phosphoric acid solution. […]

The next assay concerns the target SGK(h) (Homo sapiens, UniProt O00141). To be noted: read-out: percent residual activity of SGK(h). As to the method: as §1
as §2, with “μl, SGK” for “μl, Arg”, “EDTA, 30” for “EDTA, 50”, “μM GRPRTSSFAEGKK” for “μM EAIYAAPFAKKK”, “ID NO:226),” for “ID NO:206),”, “10 μl” for “10 pi”

Sequence of PKCδ(h) (Q05655 whole entry): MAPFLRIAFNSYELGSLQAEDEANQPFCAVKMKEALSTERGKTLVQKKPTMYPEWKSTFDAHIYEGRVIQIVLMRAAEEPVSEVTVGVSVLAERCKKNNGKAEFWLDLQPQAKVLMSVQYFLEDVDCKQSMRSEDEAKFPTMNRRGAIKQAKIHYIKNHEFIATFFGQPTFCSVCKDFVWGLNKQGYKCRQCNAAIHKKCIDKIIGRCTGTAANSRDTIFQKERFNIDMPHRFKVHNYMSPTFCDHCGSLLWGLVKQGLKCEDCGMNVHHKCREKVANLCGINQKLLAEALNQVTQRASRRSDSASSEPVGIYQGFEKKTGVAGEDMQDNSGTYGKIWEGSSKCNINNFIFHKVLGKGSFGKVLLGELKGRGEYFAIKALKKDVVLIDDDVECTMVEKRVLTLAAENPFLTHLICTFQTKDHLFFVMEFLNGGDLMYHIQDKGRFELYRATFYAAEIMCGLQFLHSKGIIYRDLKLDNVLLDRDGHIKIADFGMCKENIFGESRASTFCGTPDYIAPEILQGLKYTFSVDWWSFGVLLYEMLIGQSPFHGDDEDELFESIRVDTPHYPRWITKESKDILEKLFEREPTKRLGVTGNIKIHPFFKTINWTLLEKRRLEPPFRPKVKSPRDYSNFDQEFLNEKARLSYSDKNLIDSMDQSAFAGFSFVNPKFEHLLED
Sequence of PAK2(h) (Q13177 whole entry): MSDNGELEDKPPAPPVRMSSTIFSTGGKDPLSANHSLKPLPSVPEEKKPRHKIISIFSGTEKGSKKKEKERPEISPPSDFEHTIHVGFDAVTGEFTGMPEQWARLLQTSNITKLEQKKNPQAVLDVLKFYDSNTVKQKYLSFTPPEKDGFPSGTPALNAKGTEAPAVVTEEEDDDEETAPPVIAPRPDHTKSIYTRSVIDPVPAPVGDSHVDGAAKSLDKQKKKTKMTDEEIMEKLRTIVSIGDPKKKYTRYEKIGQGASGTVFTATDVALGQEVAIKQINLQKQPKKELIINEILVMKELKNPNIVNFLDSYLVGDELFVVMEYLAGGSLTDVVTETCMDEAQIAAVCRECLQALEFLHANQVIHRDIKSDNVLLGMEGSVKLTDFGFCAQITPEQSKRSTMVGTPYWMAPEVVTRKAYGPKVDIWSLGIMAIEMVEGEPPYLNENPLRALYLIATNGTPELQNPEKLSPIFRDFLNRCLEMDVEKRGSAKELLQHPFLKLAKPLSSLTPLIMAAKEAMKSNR
Sequence of SGK(h) (O00141 whole entry): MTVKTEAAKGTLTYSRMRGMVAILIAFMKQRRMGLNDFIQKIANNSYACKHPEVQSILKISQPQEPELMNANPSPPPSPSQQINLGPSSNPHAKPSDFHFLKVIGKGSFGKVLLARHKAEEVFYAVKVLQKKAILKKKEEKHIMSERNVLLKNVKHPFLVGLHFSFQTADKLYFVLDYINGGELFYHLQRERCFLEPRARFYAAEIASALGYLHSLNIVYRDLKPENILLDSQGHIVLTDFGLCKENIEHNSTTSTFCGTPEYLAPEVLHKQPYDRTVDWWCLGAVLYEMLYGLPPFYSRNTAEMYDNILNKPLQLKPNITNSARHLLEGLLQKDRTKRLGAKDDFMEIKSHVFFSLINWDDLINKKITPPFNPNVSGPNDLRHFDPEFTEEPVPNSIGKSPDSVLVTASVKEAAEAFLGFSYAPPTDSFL

For `CN1CCCC1CCNC(=O)c1cn2c3c(c(N4CCC(c5cnccn5)C4)c(F)cc3c1=O)Oc1cc3ccccc3cc1-2` (stereo not drawn) [Compound A-1], the remaining activity at 2.5 µM was 46% at Arg(h); 86% at CDK2/cyclinA(h); 33% on cSRC(h); 73% on PAK2(h); 105% on PKCδ(h); 50% on SGK(h).
On to `CC(=O)N1CCN(c2ccc3c(=O)c(C(=O)NCCN4CCCC4)c4n(C)c5ccccc5n4c3n2)CC1` [Compound B-1], for which the remaining activity at 2.5 µM at Arg(h) was 94%; on CDK2/cyclinA(h) it was 94%; at cSRC(h) it was 137%; on PAK2(h) it was 95%; at PKCδ(h), 100%; at SGK(h) it was 103%.
